Experimental findings from patent US9204653B2, “5-fluoro pyrimidine derivatives” (DOW AGROSCIENCES LLC, priority 2008, dated 2015) are described below.

Each structure is given as a SMILES string. Where two headings read alike, the source gives them in different places.

The subject of the assay is Mycosphaerella graminicola; Anamorph: Septoria tritici; Bayer Code SEPTTR. Nature of the assay: Leaf blotch of wheat, foliar fungicide treatment, one day protectant (1DP) or three day curative (3DC). The format is in vivo, Septoria tritici on wheat plants (variety Yuma). As to conditions: Zymoseptoria tritici, rating of percent disease control.
Setting [1] is: 24 h, one day protectant (1DP), read-out: SETTTR 1DP 25 ppm.
Setting [2] is: 24 h, one day protectant (1DP), read-out: SEPTTR 1DP 100 ppm.
Setting [3] is: 72 h, three day curative (3DC), read-out: SEPTTR 3DC 25 ppm.
Setting [4] is: 72 h, three day curative (3DC), read-out: SEPTTR 3DC 100 ppm.

Consider `COCCCOc1ncc(F)c(NC(C)=O)n1` [Compound 321], for which the pest or weed control at 25 ppm by setting is: under setting [1], 76 to 100%; under setting [3], 76 to 100%. The pest or weed control at 100 ppm lay in the range of 76 to 100% under setting [2] and 76 to 100% under setting [4].

`Oc1ncc(F)c(N/N=C/c2ccccc2Cl)n1` [Compound 322]: the pest or weed control at 25 ppm lay in the range of 0 to 25% under setting [1] and 0 to 25% under setting [3]. In addition, the pest or weed control at 100 ppm under setting [2] is 0 to 25% and the pest or weed control at 100 ppm under setting [4] was in the range of 0 to 25%.

Take `Cc1ccc(COc2ncc(F)c(N)n2)c(C)c1` [Compound 323]: the pest or weed control at 25 ppm by setting is: under setting [1], 76 to 100%; under setting [3], 76 to 100%. The pest or weed control at 100 ppm was 76 to 100% under setting [2] and 76 to 100% under setting [4].

With `O=[N+]([O-])c1ccccc1SNc1nc(OCc2ccc(F)c(F)c2)ncc1F` [Compound 324], the pest or weed control at 25 ppm lay within 76 to 100% under setting [1] and 0 to 25% under setting [3]. The pest or weed control at 100 ppm is 76 to 100% under setting [2] and 26 to 50% under setting [4].

As for `Cc1ccc(COc2ncc(F)c(NO)n2)cc1` [Compound 325], the pest or weed control at 25 ppm runs as follows: under setting [1], 76 to 100%; under setting [3], 76 to 100%. Moreover, the pest or weed control at 100 ppm is 76 to 100% under setting [2] and 76 to 100% under setting [4].

`CN1CCCC/C1=N\c1nc(OCc2cccc(F)c2)ncc1F` [Compound 326]: the pest or weed control at 25 ppm runs as follows: under setting [1], 76 to 100%; under setting [3], 51 to 75%. The pest or weed control at 100 ppm reads like this: under setting [2], 76 to 100%; under setting [4], 76 to 100%.

For `COc1cccc(COc2ncc(F)c(/N=C3\CCCCN3C)n2)c1` [Compound 327], the pest or weed control at 25 ppm under setting [1] was 51 to 75% and the pest or weed control at 25 ppm under setting [3] was 51 to 75%. Also, the pest or weed control at 100 ppm was 76 to 100% under setting [2] and 76 to 100% under setting [4].

For the compound `CCOc1ccccc1COc1ncc(F)c(N)n1` [Compound 328], the pest or weed control at 25 ppm is, setting by setting: under setting [1], 76 to 100%; under setting [3], 76 to 100%. The pest or weed control at 100 ppm runs as follows: under setting [2], 76 to 100%; under setting [4], 76 to 100%.

As for `COc1ccccc1COc1ncc(F)c(NC(=O)Nc2ccccc2F)n1` [Compound 329], the pest or weed control at 25 ppm runs as follows: under setting [1], 0 to 25%; under setting [3], 0 to 25%. In addition, the pest or weed control at 100 ppm under setting [2] lay in the range of 0 to 25% and the pest or weed control at 100 ppm under setting [4] lay within 0 to 25%.

For the compound `Fc1cnc(OCc2ccccc2)nc1NCOCc1ccccc1` [Compound 330], the pest or weed control at 25 ppm by setting is: under setting [1], 0 to 25%; under setting [3], 0 to 25%. The pest or weed control at 100 ppm under setting [2] is 76 to 100% and the pest or weed control at 100 ppm under setting [4] was in the range of 26 to 50%.

Take `CCOCNc1nc(OCc2ccccc2OC)ncc1F` [Compound 331]: the pest or weed control at 25 ppm reads like this: under setting [1], 76 to 100%; under setting [3], 76 to 100%. Moreover, the pest or weed control at 100 ppm under setting [2] was 76 to 100% and the pest or weed control at 100 ppm under setting [4] was in the range of 76 to 100%.

For the compound `O=C(Nc1ccccc1)Nc1nc(OCc2cccc(F)c2)ncc1F` [Compound 332], the pest or weed control at 25 ppm runs as follows: under setting [1], 76 to 100%; under setting [3], 51 to 75%. Further, the pest or weed control at 100 ppm under setting [2] was 76 to 100% and the pest or weed control at 100 ppm under setting [4] lay in the range of 26 to 50%.

Take `COc1cccc(COc2ncc(F)c(-n3ccnc3)n2)c1` [Compound 334]: the pest or weed control at 25 ppm reads like this: under setting [1], 76 to 100%; under setting [3], 76 to 100%. Moreover, the pest or weed control at 100 ppm was 76 to 100% under setting [2] and 76 to 100% under setting [4].

As for `CC(Oc1ncc(F)c(/N=C/N2CCOCC2)n1)c1ccc(F)cc1` (stereo not drawn) [Compound 338], the pest or weed control at 25 ppm reads like this: under setting [1], 76 to 100%; under setting [3], 76 to 100%. Further, the pest or weed control at 100 ppm under setting [2] fell in the range of 76 to 100% and the pest or weed control at 100 ppm under setting [4] lay within 76 to 100%.

Turning to `CNc1nc(OCc2ccc(OC)cc2)ncc1F` [Compound 339], the pest or weed control at 25 ppm under setting [1] was in the range of 0 to 25% and the pest or weed control at 25 ppm under setting [3] fell in the range of 26 to 50%. Moreover, the pest or weed control at 100 ppm lay in the range of 26 to 50% under setting [2] and 51 to 75% under setting [4].

As to `CCN(N)c1nc(OCc2cccc(OC)c2)ncc1F` [Compound 340], the pest or weed control at 25 ppm was in the range of 0 to 25% under setting [1] and 26 to 50% under setting [3]. Moreover, the pest or weed control at 100 ppm runs as follows: under setting [2], 76 to 100%; under setting [4], 76 to 100%.

Consider `CCOC(=O)CCC(=O)NNc1nc(OCc2ccccc2)ncc1F` [Compound 344], for which the pest or weed control at 25 ppm reads like this: under setting [1], 26 to 50%; under setting [3], 0 to 25%. Besides, the pest or weed control at 100 ppm reads like this: under setting [2], 26 to 50%; under setting [4], 26 to 50%.

With `CC[Si](CC)(CC)Nc1nc(OCc2cccc(F)c2)ncc1F` [Compound 346], the pest or weed control at 25 ppm reads like this: under setting [1], 76 to 100%; under setting [3], 76 to 100%. In addition, the pest or weed control at 100 ppm was 76 to 100% under setting [2] and 76 to 100% under setting [4].

`Nc1nc(OS(=O)(=O)c2cccs2)ncc1F` [Compound 348]: the pest or weed control at 25 ppm is, setting by setting: under setting [1], 76 to 100%; under setting [3], 76 to 100%. The pest or weed control at 100 ppm reads like this: under setting [2], 76 to 100%; under setting [4], 76 to 100%.

Regarding `COc1cc(Cl)c(COc2ncc(F)c(N)n2)cc1OC` [Compound 350], the pest or weed control at 25 ppm by setting is: under setting [1], 76 to 100%; under setting [3], 76 to 100%. The pest or weed control at 100 ppm is 76 to 100% under setting [2] and 76 to 100% under setting [4].

`COc1ccc(OC)c(COc2ncc(F)c(N)n2)c1` [Compound 351]: the pest or weed control at 25 ppm lay within 76 to 100% under setting [1] and 76 to 100% under setting [3]. Also, the pest or weed control at 100 ppm under setting [2] was 76 to 100% and the pest or weed control at 100 ppm under setting [4] was in the range of 76 to 100%.

Regarding `COc1ccccc1COc1ncc(F)c(NCOCc2ccccc2)n1` [Compound 354], the pest or weed control at 25 ppm by setting is: under setting [1], 51 to 75%; under setting [3], 26 to 50%. In addition, the pest or weed control at 100 ppm is, setting by setting: under setting [2], 76 to 100%; under setting [4], 76 to 100%.

For `Nc1nc(OC(c2ccc(F)cc2)c2ccc(F)cc2)ncc1F` [Compound 355], the pest or weed control at 25 ppm runs as follows: under setting [1], 76 to 100%; under setting [3], 76 to 100%. In addition, the pest or weed control at 100 ppm lay within 76 to 100% under setting [2] and 76 to 100% under setting [4].

Take `Fc1cnc(OCc2ccccc2)nc1N/N=C/c1ccco1` [Compound 357]: the pest or weed control at 25 ppm under setting [1] lay within 26 to 50% and the pest or weed control at 25 ppm under setting [3] is 0 to 25%. In addition, the pest or weed control at 100 ppm by setting is: under setting [2], 26 to 50%; under setting [4], 51 to 75%.

As for `CC(C)=NNc1nc(OCc2ccc(F)cc2)ncc1F` [Compound 358], the pest or weed control at 25 ppm is 0 to 25% under setting [1] and 26 to 50% under setting [3]. In addition, the pest or weed control at 100 ppm under setting [2] is 51 to 75% and the pest or weed control at 100 ppm under setting [4] was 76 to 100%.

`CN(C)/C=N/c1nc(OS(=O)(=O)c2ccc(Cl)cc2)ncc1F` [Compound 359]: the pest or weed control at 25 ppm under setting [1] is 76 to 100% and the pest or weed control at 25 ppm under setting [3] was 76 to 100%. In addition, the pest or weed control at 100 ppm by setting is: under setting [2], 76 to 100%; under setting [4], 26 to 50%.

With `O=C(Nc1nc(OCc2cccc(F)c2)ncc1F)OCc1cccc(F)c1` [Compound 360], the pest or weed control at 25 ppm runs as follows: under setting [1], 76 to 100%; under setting [3], 76 to 100%. The pest or weed control at 100 ppm by setting is: under setting [2], 76 to 100%; under setting [4], 76 to 100%.

Consider `CN(C)/C=N/c1nc(OC(=O)Oc2ccc(Cl)cc2)ncc1F` [Compound 361], for which the pest or weed control at 25 ppm under setting [1] lay in the range of 51 to 75% and the pest or weed control at 25 ppm under setting [3] fell in the range of 76 to 100%. In addition, the pest or weed control at 100 ppm under setting [2] was in the range of 76 to 100% and the pest or weed control at 100 ppm under setting [4] was 76 to 100%.

Consider `COCNc1nc(OCc2ccc(F)cc2)ncc1F` [Compound 362], for which the pest or weed control at 25 ppm under setting [1] was 51 to 75% and the pest or weed control at 25 ppm under setting [3] was in the range of 51 to 75%. Also, the pest or weed control at 100 ppm under setting [2] is 76 to 100% and the pest or weed control at 100 ppm under setting [4] fell in the range of 76 to 100%.

`O=C(Nc1nc(OCc2ccc(F)cc2)ncc1F)c1ccccc1` [Compound 364]: the pest or weed control at 25 ppm is, setting by setting: under setting [1], 76 to 100%; under setting [3], 76 to 100%. For the same compound, the pest or weed control at 100 ppm by setting is: under setting [2], 76 to 100%; under setting [4], 76 to 100%.

For `Cc1cc(COc2ncc(F)c(N)n2)ccc1F` [Compound 365], the pest or weed control at 25 ppm by setting is: under setting [1], 76 to 100%; under setting [3], 76 to 100%. For the same compound, the pest or weed control at 100 ppm under setting [2] was 76 to 100% and the pest or weed control at 100 ppm under setting [4] is 76 to 100%.

Consider `Cn1ccc(COc2ncc(F)c(NSc3ccccc3[N+](=O)[O-])n2)n1` [Compound 366], for which the pest or weed control at 25 ppm runs as follows: under setting [1], 76 to 100%; under setting [3], 51 to 75%. Besides, the pest or weed control at 100 ppm lay within 76 to 100% under setting [2] and 76 to 100% under setting [4].

Consider `COc1cccc(COc2ncc(F)c(N(N)c3ccccc3)n2)c1` [Compound 367], for which the pest or weed control at 25 ppm was in the range of 0 to 25% under setting [1] and 0 to 25% under setting [3]. Moreover, the pest or weed control at 100 ppm runs as follows: under setting [2], 0 to 25%; under setting [4], 0 to 25%.

Take `Nc1nc(OCc2cccc(OC(F)F)c2)ncc1F` [Compound 368]: the pest or weed control at 25 ppm under setting [1] lay within 76 to 100% and the pest or weed control at 25 ppm under setting [3] was in the range of 76 to 100%. The pest or weed control at 100 ppm fell in the range of 76 to 100% under setting [2] and 76 to 100% under setting [4].

As for `Fc1cnc(OCc2cccs2)nc1/N=C/N1CCOCC1` [Compound 369], the pest or weed control at 25 ppm by setting is: under setting [1], 76 to 100%; under setting [3], 76 to 100%. Also, the pest or weed control at 100 ppm reads like this: under setting [2], 76 to 100%; under setting [4], 76 to 100%.

Turning to `O=C(NCc1ccccc1F)Nc1nc(OCc2ccccc2)ncc1F` [Compound 371], the pest or weed control at 25 ppm by setting is: under setting [1], 0 to 25%; under setting [3], 0 to 25%. Further, the pest or weed control at 100 ppm reads like this: under setting [2], 0 to 25%; under setting [4], 0 to 25%.
